From paper PMC5892457, “Characterisation of novel biomass degradation enzymes from the genome of Cellulomonas fimi” (Enzyme and Microbial Technology, 2018)

Molecular target: T1, AfsA (Cellulomonas fimi, UniProt F4H166)
T1 construct: gene Celf_3321; full ORF as BioBrick, E. coli JM109 crude lysate, untagged
T1 sequence (F4H166 1-506): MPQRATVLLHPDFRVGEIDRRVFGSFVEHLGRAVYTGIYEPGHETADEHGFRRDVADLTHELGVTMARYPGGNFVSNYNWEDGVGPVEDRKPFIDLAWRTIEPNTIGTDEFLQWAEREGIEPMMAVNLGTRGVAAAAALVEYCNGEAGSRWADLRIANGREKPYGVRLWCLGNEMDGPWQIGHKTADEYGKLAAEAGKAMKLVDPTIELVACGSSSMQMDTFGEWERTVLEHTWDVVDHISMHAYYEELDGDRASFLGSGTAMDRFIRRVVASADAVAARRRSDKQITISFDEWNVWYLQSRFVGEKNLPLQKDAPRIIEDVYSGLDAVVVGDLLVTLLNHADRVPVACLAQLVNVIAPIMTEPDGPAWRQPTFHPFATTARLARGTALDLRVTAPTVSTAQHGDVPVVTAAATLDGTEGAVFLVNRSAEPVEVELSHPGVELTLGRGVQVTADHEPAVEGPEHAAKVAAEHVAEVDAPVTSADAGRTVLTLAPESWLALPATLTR
Assay: nitrophenol release at […] nm
Assay type: biochemical
Settings: pH 5.0, 37 °C, E. coli lysate

Structure (SMILES)	nitrophenol release at 405 nm
O=[N+]([O-])c1ccccc1O[C@@H]1OC[C@@H](O)[C@H](O)[C@H]1O [ONPX, 2-nitrophenyl β-D-xylopyranoside]	AfsA at this temperature and pH being more active with ONPX than PNPA
O=[N+]([O-])c1ccc(O[C@@H]2O[C@@H](CO)[C@H](O)[C@H]2O)cc1 [PNPA, 4-nitrophenyl α-L-arabinofuranoside]	AfsA and AfsB have both arabinofuranoisdase and xylosidase activities
